Literature values, collected in patent US20080112943A1, “Biosynthetic Polypeptide Fusion Inhibitors” (priority 2005, published 2008).

What was measured:
[1] = system: monocytes and neutrophils
[2] = target: T1, N-formyl peptide receptor (Homo sapiens, UniProt P21462); settings: human phagocytes
T1 construct: host or cells: human phagocytes (endogenous receptor)
T1 sequence (P21462 1-350): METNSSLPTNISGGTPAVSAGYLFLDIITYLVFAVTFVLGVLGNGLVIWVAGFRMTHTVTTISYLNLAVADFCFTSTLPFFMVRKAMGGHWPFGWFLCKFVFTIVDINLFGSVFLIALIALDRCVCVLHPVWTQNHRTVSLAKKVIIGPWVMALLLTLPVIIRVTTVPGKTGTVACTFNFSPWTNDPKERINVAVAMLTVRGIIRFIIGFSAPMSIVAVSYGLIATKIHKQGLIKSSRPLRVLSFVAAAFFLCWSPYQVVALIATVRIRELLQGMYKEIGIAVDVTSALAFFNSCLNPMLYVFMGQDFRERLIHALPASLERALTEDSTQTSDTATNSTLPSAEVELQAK

[3] = in vitro studies and in animals

enfuvirtide
chemoattractant and activator of monocytes and neutrophils [1]: chemoattractant and activator | activation of the N-formyl peptide receptor [2]: activates | toxicity [3]: non-toxic | inhibition of HIV-1 mediated CD-4+ cell-cell fusion (i.e., syncytial formation) and infection of CD-4+ cells by cell-free virus (HIV-1): potent inhibitor
